The values below are quoted from earlier work in patent US20050220810A1, “Anti-aging preparation” (Shiseido Company, Ltd., priority 2002, published 2005).

The subject of this data set is vascular endothelial cell HMVEC. Particulars: general statement on positive controls of TSP-1 induction; no test described.

On to “bFGF: fibroblast growth factor, a positive control of the TSP-1 inducing substance”, for which the “induction of cell death in vascular endothelial cells” value is reported as “does not induce cell death”.
